Data published in the kinase profiling compilation of Christmann-Franck et al. (2016).

Assays:
Test in all cases: radiometric filter-binding kinase assay, Kinase HotSpot
Conditions in all cases: compound 0.5 µM; ATP 10 µM
[1] = biological target: EPHA7 (human) (UniProt Q15375)
[2] = biological target: GRK4 (human) (UniProt P32298)
[3] = biological target: ROCK1 (human) (UniProt Q13464)
[4] = biological target: FRK (human) (UniProt P42685)
[5] = biological target: AURKC (human) (UniProt Q9UQB9)
[6] = biological target: MAPKAPK3 (human) (UniProt Q16644)
[7] = biological target: FLT3 (human) (UniProt P36888)
[8] = biological target: ADRBK1 (human) (UniProt P25098)
[9] = biological target: IGF1R (human) (UniProt P08069)
[10] = biological target: SYK (human) (UniProt P43405)
[11] = biological target: STK3 (human) (UniProt Q13188)
[12] = biological target: DAPK2 (human) (UniProt Q9UIK4)
Chain of DAPK2 (human) (Q9UIK4 whole entry, looked up): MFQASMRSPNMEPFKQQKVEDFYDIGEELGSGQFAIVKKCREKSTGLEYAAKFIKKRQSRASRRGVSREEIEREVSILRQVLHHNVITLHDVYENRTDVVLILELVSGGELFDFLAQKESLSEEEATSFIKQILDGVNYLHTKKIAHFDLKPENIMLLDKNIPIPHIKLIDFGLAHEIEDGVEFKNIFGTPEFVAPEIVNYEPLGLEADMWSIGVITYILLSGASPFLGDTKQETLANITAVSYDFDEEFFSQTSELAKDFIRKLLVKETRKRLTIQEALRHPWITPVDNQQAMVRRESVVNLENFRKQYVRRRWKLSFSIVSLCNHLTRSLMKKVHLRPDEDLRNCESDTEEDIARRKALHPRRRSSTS

[13] = biological target: ACVR1B (human) (UniProt P36896)
[14] = biological target: MAP3K11 (human) (UniProt Q16584)
[15] = biological target: CDK2 CCNE1 (human) (UniProt P24941+P24864)
Chain of CDK2 CCNE1 (human) (P24864 whole entry, looked up, other chains not shown): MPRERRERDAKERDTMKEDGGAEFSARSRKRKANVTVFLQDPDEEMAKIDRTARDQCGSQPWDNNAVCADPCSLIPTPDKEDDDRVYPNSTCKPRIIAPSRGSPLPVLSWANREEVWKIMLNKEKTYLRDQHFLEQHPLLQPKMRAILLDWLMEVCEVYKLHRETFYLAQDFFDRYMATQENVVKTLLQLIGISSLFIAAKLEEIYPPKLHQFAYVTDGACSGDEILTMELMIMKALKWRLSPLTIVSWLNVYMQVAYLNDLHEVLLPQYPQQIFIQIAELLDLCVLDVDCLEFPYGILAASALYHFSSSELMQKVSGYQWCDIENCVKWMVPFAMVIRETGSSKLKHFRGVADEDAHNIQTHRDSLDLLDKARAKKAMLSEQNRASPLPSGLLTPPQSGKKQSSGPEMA

[16] = biological target: DMPK (human) (UniProt Q09013)
[17] = biological target: PRKCG (human) (UniProt P05129)
[18] = biological target: CAMK1 (human) (UniProt Q14012)
Chain of CAMK1 (human) (Q14012 whole entry, looked up): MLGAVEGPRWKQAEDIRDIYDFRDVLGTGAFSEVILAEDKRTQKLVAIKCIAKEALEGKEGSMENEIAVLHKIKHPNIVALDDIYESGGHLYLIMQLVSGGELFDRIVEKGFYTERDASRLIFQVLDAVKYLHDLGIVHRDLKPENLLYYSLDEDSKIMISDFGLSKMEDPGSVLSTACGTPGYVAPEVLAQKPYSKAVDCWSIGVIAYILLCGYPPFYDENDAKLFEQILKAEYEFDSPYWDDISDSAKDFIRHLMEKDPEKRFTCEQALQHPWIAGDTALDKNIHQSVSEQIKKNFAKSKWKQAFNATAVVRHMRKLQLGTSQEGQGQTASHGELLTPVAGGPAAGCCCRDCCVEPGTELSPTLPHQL

[19] = biological target: EPHB4 (human) (UniProt P54760)
[20] = biological target: BRAF (human) (UniProt P15056)
[21] = biological target: FGFR1 (human) (UniProt P11362)
Chain of FGFR1 (human) (P11362 whole entry, looked up): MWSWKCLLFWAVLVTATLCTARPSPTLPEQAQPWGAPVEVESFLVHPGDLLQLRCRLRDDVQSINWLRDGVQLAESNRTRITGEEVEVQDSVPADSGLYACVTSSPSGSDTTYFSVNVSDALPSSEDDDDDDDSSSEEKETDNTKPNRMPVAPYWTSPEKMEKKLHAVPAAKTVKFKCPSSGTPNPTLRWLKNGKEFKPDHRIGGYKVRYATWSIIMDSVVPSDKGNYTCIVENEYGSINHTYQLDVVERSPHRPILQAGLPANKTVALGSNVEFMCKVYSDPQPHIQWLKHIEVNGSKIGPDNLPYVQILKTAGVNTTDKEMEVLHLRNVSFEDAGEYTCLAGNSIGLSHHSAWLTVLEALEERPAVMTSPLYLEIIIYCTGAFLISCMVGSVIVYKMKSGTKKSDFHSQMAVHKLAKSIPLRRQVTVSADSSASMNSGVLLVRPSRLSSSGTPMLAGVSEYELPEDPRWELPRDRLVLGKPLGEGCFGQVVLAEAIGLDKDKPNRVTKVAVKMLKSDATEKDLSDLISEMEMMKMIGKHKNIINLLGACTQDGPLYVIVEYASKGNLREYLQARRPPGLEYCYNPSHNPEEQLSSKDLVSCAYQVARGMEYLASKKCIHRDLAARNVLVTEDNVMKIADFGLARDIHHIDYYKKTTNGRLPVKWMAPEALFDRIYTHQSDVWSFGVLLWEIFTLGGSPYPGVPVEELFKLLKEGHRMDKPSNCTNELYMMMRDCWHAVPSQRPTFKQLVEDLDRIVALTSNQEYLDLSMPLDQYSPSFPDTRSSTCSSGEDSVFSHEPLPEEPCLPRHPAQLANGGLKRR

[22] = biological target: MAP3K5 (human) (UniProt Q99683)
[23] = biological target: PRKCD (human) (UniProt Q05655)
[24] = biological target: BMX (human) (UniProt P51813)
[25] = biological target: DYRK2 (human) (UniProt Q92630)
[26] = biological target: GSK3B (human) (UniProt P49841)
[27] = biological target: YES1 (human) (UniProt P07947)
[28] = biological target: NEK1 (human) (UniProt Q96PY6)
[29] = biological target: IKBKE (human) (UniProt Q14164)
Chain of IKBKE (human) (Q14164 whole entry, looked up): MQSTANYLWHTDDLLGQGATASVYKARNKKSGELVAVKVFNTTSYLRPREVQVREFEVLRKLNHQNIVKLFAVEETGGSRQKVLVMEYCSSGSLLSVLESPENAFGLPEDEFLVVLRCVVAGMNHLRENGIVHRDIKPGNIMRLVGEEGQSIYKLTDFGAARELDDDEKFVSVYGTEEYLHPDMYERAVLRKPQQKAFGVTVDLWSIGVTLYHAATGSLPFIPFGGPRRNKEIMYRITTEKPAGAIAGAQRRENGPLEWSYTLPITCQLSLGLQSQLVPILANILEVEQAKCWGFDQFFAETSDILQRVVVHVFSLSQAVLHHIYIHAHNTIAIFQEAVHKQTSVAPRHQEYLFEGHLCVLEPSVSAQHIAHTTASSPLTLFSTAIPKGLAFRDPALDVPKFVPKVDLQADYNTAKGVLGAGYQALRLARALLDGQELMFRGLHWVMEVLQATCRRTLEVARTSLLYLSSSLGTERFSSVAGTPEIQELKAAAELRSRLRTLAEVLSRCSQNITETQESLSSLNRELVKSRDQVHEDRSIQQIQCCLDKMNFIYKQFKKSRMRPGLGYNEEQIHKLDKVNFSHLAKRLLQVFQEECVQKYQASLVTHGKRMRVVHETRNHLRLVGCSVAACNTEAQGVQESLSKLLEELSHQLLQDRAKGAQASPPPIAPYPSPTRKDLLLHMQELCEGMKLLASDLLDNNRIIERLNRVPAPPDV

[30] = biological target: PAK7 (human) (UniProt Q9P286)
[31] = biological target: EPHA5 (human) (UniProt P54756)
[32] = biological target: RPS6KA2 KD1 KD2 (human) (UniProt Q15349)
[33] = biological target: PIM1 (human) (UniProt P11309)
[34] = biological target: INSR (human) (UniProt P06213)

Chain of EPHA7 (human) (Q15375 whole entry, looked up): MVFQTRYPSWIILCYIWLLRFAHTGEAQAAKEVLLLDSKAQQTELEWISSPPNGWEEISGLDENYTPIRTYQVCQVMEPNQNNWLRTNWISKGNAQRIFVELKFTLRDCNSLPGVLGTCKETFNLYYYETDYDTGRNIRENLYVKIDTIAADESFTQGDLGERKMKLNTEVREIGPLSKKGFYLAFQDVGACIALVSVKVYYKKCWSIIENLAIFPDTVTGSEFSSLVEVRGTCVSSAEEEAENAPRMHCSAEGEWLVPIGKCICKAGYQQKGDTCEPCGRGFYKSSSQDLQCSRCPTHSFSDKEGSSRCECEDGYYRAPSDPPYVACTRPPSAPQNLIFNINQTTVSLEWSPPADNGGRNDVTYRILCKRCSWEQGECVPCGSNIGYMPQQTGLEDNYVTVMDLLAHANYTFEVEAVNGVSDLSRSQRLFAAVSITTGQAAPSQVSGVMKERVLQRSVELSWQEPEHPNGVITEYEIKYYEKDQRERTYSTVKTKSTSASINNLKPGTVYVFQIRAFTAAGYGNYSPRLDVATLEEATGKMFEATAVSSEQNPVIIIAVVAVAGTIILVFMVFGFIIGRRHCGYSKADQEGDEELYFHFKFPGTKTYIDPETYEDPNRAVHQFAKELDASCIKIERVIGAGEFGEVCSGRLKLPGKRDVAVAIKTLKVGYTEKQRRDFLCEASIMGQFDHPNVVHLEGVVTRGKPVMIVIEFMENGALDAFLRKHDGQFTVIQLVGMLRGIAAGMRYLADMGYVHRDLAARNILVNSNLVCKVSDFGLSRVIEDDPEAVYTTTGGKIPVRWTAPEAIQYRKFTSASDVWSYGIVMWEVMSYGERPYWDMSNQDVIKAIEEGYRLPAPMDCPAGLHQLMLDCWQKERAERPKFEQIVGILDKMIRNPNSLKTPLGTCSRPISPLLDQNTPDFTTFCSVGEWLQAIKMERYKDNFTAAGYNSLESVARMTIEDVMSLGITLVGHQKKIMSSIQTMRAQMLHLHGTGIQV
Chain of FRK (human) (P42685 whole entry, looked up): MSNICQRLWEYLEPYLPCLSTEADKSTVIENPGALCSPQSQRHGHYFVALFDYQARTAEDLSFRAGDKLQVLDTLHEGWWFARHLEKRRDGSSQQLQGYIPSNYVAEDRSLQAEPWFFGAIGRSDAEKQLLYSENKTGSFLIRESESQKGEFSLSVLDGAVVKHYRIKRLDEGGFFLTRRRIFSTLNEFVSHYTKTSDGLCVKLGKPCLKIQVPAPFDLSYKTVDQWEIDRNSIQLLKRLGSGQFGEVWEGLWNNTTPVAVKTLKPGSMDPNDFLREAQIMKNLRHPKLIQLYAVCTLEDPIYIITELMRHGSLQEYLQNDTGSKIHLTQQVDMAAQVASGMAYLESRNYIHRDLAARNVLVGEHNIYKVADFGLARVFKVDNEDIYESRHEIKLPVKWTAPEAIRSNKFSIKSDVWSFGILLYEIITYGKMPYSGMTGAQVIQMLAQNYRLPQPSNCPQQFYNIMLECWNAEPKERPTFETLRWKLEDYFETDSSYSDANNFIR

COc1ccc(CNC(=O)Nc2ncc([N+](=O)[O-])s2)cc1
residual activity [1]: 96.6%
residual activity [2]: 92.1%
residual activity [3]: 102%
residual activity [4]: 97.2%
residual activity [5]: 98.4%
residual activity [6]: 103%
residual activity [7]: 98.9%
residual activity [8]: 96.4%
residual activity [9]: 101%
residual activity [10]: 98.6%
residual activity [11]: 92.6%
residual activity [12]: 93.3%
residual activity [13]: 102%
residual activity [14]: 101%
residual activity [15]: 97.6%
residual activity [16]: 101%
residual activity [17]: 99.8%
residual activity [18]: 101%
residual activity [19]: 100%
residual activity [20]: 93.4%
residual activity [21]: 98.9%
residual activity [22]: 87.8%
residual activity [23]: 100%
residual activity [24]: 90.8%
residual activity [25]: 103%
residual activity [26]: 40.2%
residual activity [27]: 96.1%
residual activity [28]: 94.3%
residual activity [29]: 99.8%
residual activity [30]: 95.4%
residual activity [31]: 117%
residual activity [32]: 100%
residual activity [33]: 104%

CCN(CC)CCCCN1c2ccccc2Oc2ccc(Cl)cc21
residual activity [1]: 102%
residual activity [2]: 102%
residual activity [3]: 92.6%
residual activity [4]: 98.4%
residual activity [5]: 99.3%
residual activity [6]: 105%
residual activity [7]: 99%
residual activity [8]: 96.5%
residual activity [9]: 89.4%
residual activity [10]: 97.6%
residual activity [11]: 106%
residual activity [12]: 99%
residual activity [13]: 105%
residual activity [14]: 99.9%
residual activity [15]: 89.4%
residual activity [16]: 99.2%
residual activity [17]: 91.1%
residual activity [18]: 101%
residual activity [19]: 97.9%
residual activity [20]: 98.8%
residual activity [34]: 109%
residual activity [21]: 105%
residual activity [22]: 106%
residual activity [23]: 95.4%
residual activity [24]: 104%
residual activity [25]: 101%
residual activity [26]: 113%
residual activity [27]: 88.5%
residual activity [28]: 101%
residual activity [29]: 102%
residual activity [30]: 116%
residual activity [31]: 109%
residual activity [32]: 88%

Cn1cnc2cc3c(Nc4cccc(Br)c4)ncnc3cc21
residual activity [1]: 72%
residual activity [2]: 99.5%
residual activity [3]: 98.6%
residual activity [4]: 93.6%
residual activity [5]: 96.5%
residual activity [6]: 94.4%
residual activity [7]: 33.4%
residual activity [8]: 100%
residual activity [9]: 102%
residual activity [10]: 98.5%
residual activity [11]: 89.9%
residual activity [12]: 92.5%
residual activity [13]: 111%
residual activity [14]: 94.8%
residual activity [15]: 78.2%
residual activity [16]: 98.4%
residual activity [17]: 93.9%
residual activity [18]: 106%
residual activity [20]: 94.2%
residual activity [34]: 94.4%
residual activity [21]: 89.6%
residual activity [22]: 110%
residual activity [23]: 91.8%
residual activity [24]: 96.6%
residual activity [25]: 95.5%
residual activity [26]: 101%
residual activity [27]: 45.7%
residual activity [28]: 97.9%
residual activity [29]: 98.7%
residual activity [30]: 86.1%
residual activity [31]: 71.5%
residual activity [32]: 79.4%
residual activity [33]: 73.8%
